The text below walks through data of patent US20240150377A1, “MODULATORS OF CYSTIC FIBROSIS TRANSMEMBRANE CONDUCTANCE REGULATOR” (VERTEX PHARMACEUTICALS INCORPORATED, priority 2020, published 2024).

Read-outs that look alike come from different tables or passages of the source.

The target of this assay is T1, CFTR (Homo sapiens, UniProt P13569, DEL508-508).
T1 construct: endogenous in cells; host or cells: primary human bronchial epithelial cells from CF subjects (F508del/MF-HBE), differentiated at air-liquid interface
Description: HBE assay: Ussing chamber assay of CFTR-mediated short-circuit currents. As to conditions: for EC50: read-out: HBE EC50. Format: cell-based. The method, boiled down:
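CFTR-mediated Isc (μA/cm²) equals the peak response to apical 20 μM forskolin minus the residual after a 20 μM each BPO/GlyH-101/CFTR inhibitor 172 cocktail, recorded in Ussing chambers at Vhold 0 mV, 37 °C, pH 7.4, with 30 μM apical amiloride. Cells were F508del/MF HBE cultures preincubated 18-24 h with corrector (concentration range or 10 μM) plus 1 μM ivacaftor in 20% human serum.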

Where [1] appears, read: Table 13, read-out: HBE Max Activity (%).
Setting [2] is: Table 11, read-out: HBE Max Activity (%).
Where [3] appears, read: Table 12, read-out: HBE Max Activity (%).
[4] abbreviates: HBE assay, 10 μM, read-out: HBE Activity at 10 μM (%).
Setting [5] is: Table 13, at 10 μM, read-out: HBE Activity at 10 μM (%).
Where [6] appears, read: Table 12, at 10 μM, read-out: HBE Activity at 10 μM (%).
The mark [7] stands for this setting: Table 10, read-out: HBE Max activity (%).

In general, EC50 refers to the concentration giving half of the maximal effect.

T1 sequence (P13569 with tags, fused parts or gaps DEL508-508): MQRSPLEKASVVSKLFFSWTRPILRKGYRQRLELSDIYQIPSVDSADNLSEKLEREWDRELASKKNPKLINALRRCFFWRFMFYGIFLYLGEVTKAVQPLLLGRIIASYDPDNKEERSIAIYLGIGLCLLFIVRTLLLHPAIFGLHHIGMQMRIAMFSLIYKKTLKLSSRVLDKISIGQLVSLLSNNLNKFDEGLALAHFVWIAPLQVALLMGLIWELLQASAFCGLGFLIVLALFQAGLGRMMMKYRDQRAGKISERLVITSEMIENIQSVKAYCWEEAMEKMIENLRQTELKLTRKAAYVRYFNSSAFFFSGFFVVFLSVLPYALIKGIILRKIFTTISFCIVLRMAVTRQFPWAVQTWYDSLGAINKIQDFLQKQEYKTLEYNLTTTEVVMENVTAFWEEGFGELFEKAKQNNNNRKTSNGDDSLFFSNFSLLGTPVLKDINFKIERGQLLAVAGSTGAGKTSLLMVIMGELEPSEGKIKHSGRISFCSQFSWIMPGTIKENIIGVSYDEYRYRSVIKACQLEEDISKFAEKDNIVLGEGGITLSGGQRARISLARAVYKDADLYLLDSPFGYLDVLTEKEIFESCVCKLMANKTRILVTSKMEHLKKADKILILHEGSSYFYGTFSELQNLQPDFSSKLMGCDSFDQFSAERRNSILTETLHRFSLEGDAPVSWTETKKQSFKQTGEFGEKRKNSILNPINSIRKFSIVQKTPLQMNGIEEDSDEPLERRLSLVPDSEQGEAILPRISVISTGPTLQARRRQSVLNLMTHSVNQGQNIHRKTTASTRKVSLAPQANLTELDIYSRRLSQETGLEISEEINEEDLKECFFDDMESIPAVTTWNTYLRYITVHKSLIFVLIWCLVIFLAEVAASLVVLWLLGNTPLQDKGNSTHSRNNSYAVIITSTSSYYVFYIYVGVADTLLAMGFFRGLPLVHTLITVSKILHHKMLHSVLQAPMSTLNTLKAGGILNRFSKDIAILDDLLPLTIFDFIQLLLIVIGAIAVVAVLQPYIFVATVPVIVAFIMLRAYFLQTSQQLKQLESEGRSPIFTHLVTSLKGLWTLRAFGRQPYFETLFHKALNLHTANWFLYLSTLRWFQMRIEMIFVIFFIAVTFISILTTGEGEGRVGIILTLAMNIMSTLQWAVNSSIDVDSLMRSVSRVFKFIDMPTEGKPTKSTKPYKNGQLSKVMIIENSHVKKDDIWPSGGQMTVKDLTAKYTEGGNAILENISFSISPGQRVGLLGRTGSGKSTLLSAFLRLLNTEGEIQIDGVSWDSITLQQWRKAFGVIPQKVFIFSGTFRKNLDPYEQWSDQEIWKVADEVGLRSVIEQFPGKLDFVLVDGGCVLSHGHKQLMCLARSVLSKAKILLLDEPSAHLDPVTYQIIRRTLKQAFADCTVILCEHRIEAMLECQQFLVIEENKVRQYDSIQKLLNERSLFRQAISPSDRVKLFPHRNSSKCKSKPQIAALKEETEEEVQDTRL

Consider `Cc1cccc(C)c1-c1cc2nc(n1)NS(=O)(=O)c1cccc(n1)C(=O)N(Cc1cncc(N(C)CC(C)(C)C)n1)[C@H](CC(C)(C)C)CO2` [Compound 1126], for which the EC50 (Table 13) was less than 1 µM. Under setting [1], the Emax was greater than 60%.

In the case of `Cc1cccc(C)c1-c1cc2nc(n1)NS(=O)(=O)c1cccc(c1)C(=O)N(Cc1cccc(C(C)(C)O)n1)[C@H](CC(C)(C)C)CO2` [Compound 817], the EC50 (Table 11) is less than 1 µM. In addition, under setting [2], the Emax was greater than 60%.

Take `Cc1cccc(C)c1-c1cc2nc(n1)NS(=O)(=O)c1cccc(c1)C(=O)N(CC(=O)NCC1CCCCC1)[C@H](CC(C)(C)C)CO2` [Compound 230]: where the note is “Table 12”, the EC50 was less than 1 µM. For the same molecule, the Emax under setting [3] was greater than 60%.

As to `Cc1cccc(C)c1-c1cc2nc(n1)NS(=O)(=O)c1cccc(c1)C(=O)N(Cc1ncc(NC(=O)OC(C)C)cn1)[C@H](CC(C)(C)C)CO2` [Compound 1515], under setting [4], the activation at 10 µM was greater than 60%.

On to `Cc1cccc(C)c1-c1cc2nc(n1)NS(=O)(=O)c1cccc(c1)C(=O)N(Cc1ncc(N3CC4(CC4)C3)cn1)[C@H](CC(C)(C)C)CO2` [Compound 622], for which the EC50 (Table 11) was in the range of 1 to 3 µM. Moreover, the Emax under setting [2] was greater than 60%.

For `COC[C@H]1CCCN1c1cccc(CN2C(=O)c3cccc(c3)S(=O)(=O)Nc3nc(cc(-c4c(C)cccc4C)n3)OC[C@H]2CC(C)(C)C)n1` [Compound 276], where the note is “Table 12”, the 50% effective concentration (EC50) is less than 1 µM. Besides, the Emax under setting [3] was greater than 60%.

Take `Cc1cccc(C)c1-c1cc2nc(n1)NS(=O)(=O)c1cccc(c1)C(=O)N(CC(=O)N1[C@H](C)CCC[C@@H]1C)[C@H](CC(C)(C)C)CO2` [Compound 190]: under setting [5], the activation at 10 µM was greater than 600%.

For `Cc1ccc(N(C)C2CC3(CC3)C2)nc1CN1C(=O)c2cccc(c2)S(=O)(=O)Nc2nc(cc(-c3c(C)cccc3C)n2)OC[C@H]1CC(C)(C)C` [Compound 1140], the EC50 (Table 13) is less than 1 µM. Further, the Emax under setting [1] is greater than 60%.

Consider `Cc1cccc(C)c1-c1cc2nc(n1)NS(=O)(=O)c1cccc(c1)C(=O)N(Cc1cc(N(C)CC(C)(C)C)ccn1)[C@H](CC(C)(C)C)CO2` [Compound 994], for which the activation at 10 µM under setting [5] is greater than 600%.

Consider `COC1(C)CN(c2cnc(CN3C(=O)c4cccc(c4)S(=O)(=O)Nc4nc(cc(-c5c(C)cccc5C)n4)OC[C@H]3CC(C)(C)C)nc2)C1` [Compound 585], for which, for the setting “Table 12”, the EC50 is less than 1 µM. Under setting [3], the Emax was greater than 60%.

As to `Cc1cccc(C)c1-c1cc2nc(n1)NS(=O)(=O)c1cccc(c1)C(=O)N(Cc1ncc(OCC(F)F)cn1)[C@H](CC(C)(C)C)CO2` [Compound 1416], the EC50 (HBE assay) is less than 1 µM. In addition, the Emax (HBE assay, read-out: HBE Max activity (%)) is greater than 60%.

Turning to `Cc1cccc(C)c1-c1cc2nc(n1)NS(=O)(=O)c1cccc(c1)C(=O)N(Cc1nc(C(C)C)cs1)[C@H](CC(C)(C)C)CO2` [Compound 704], for the setting “Table 12”, the EC50 was less than 1 µM. Also, the Emax under setting [3] was greater than 60%.

With `CCN(c1cccc(CN2C(=O)c3cccc(c3)S(=O)(=O)Nc3nc(cc(-c4c(C)cccc4C)n3)OC[C@H]2CC(C)(C)C)n1)C(C)C` [Compound 131, (11R)-6-(2,6-Dimethylphenyl)-11-(2,2-dimethylpropyl)-12-({6-[ethyl(propan-2-yl)amino]pyridin-2-yl}methyl)-9-oxa-2λ^6-thia-3,5,12,19-tetraazatricyclo[12.3.1.14,8]nonadeca-1(17),4,6,8(19),14(18),15-hexaene-2,2,13-trione], the half-maximal effective concentration (EC50) (Table 11) is less than 1 µM. Besides, the Emax (read-out: HBE Max activity (%)) was greater than 60%.

Regarding `CCCOc1cnc(CN2C(=O)c3cccc(c3)S(=O)(=O)Nc3nc(cc(-c4c(C)cccc4C)n3)OC[C@H]2CC(C)(C)C)nc1` [Compound 1521], under setting [4], the activation at 10 µM is greater than 60%.

Consider `Cc1cccnc1-c1cccc(CN2C(=O)c3cccc(c3)S(=O)(=O)Nc3nc(cc(-c4c(C)cccc4C)n3)OC[C@H]2CC(C)(C)C)n1` [Compound 591], for which the activation at 10 µM under setting [6] was greater than 600%.

`CCCCN(c1cccc(CN2C(=O)c3cccc(c3)S(=O)(=O)Nc3nc(cc(-c4c(C)cccc4C)n3)OC[C@H]2CC(C)(C)C)n1)C(C)C` [Compound 1137]: for the setting “Table 13”, the EC50 was less than 1 µM. For the same molecule, under setting [1], the Emax is greater than 60%.

On to `Cc1cccc(C)c1-c1cc2nc(n1)NS(=O)(=O)c1cccc(c1)C(=O)N(Cc1cccc(Br)n1)[C@H](CC(C)(C)C)CO2` [Compound 992], for which, under setting [5], the activation at 10 µM was greater than 600%.

For `COC(=O)Nc1cnc(CN2C(=O)c3cccc(c3)S(=O)(=O)Nc3nc(cc(-c4c(C)cccc4C)n3)OC[C@H]2CC(C)(C)C)nc1` [Compound 1514], the activation at 10 µM under setting [4] was greater than 60%.

Regarding `Cc1cccc(C)c1-c1cc2nc(n1)NS(=O)(=O)c1cccc(c1)C(=O)N(Cc1ccc(C3=CCN=N3)cc1)[C@H](CC(C)(C)C)CO2` [Compound 289], the Emax under setting [7] is greater than 60%.

Regarding `Cc1cccc(C)c1-c1cc2nc(n1)NS(=O)(=O)c1cccc(c1)C(=O)N(Cc1ncc(OC3CCCC3)cn1)[C@H](CC(C)(C)C)CO2` [Compound 566], the EC50 (Table 12) is less than 1 µM. The Emax under setting [3] was greater than 60%.

In the case of `Cc1cccc(C)c1-c1cc2nc(n1)NS(=O)(=O)c1cccc(c1)C(=O)N(Cc1cccc(N(C)C)n1)[C@H](CC(C)(C)C)CO2` [Compound 491], the activation at 10 µM (Table 10, at 10 μM, read-out: HBE activity at 10 (μM) (%)) was greater than 60%. In addition, the EC50 (Table 10) is less than 1 µM. For the same molecule, the Emax under setting [7] was greater than 60%.

For `Cc1cccc(C)c1-c1cc2nc(n1)NS(=O)(=O)c1cccc(c1)C(=O)N(Cc1ncc([C@@H](O)CO)cn1)[C@H](CC(C)(C)C)CO2` [Compound 1152], the EC50 (Table 13) was less than 1 µM.

With `COC(=O)c1ccc(CN2C(=O)c3cccc(c3)S(=O)(=O)Nc3nc(cc(-c4c(C)cccc4C)n3)OC[C@H]2CC(C)(C)C)nc1` [Compound 248], under setting [5], the activation at 10 µM was greater than 600%.

Regarding `Cc1cccc(C)c1-c1cc2nc(n1)NS(=O)(=O)c1cccc(c1)C(=O)N(Cc1nc(N(C)C)cc(C(F)(F)F)n1)[C@H](CC(C)(C)C)CO2` [Compound 325], under setting [6], the activation at 10 µM is greater than 600%.

With `Cc1cccc(C)c1-c1cc2nc(n1)NS(=O)(=O)c1cccc(c1)C(=O)N(CC(=O)NCc1ccccn1)[C@H](CC(C)(C)C)CO2` [Compound 220], the activation at 10 µM under setting [5] is greater than 600%.

`Cc1cccc(C)c1-c1cc2nc(n1)NS(=O)(=O)c1cccc(c1)C(=O)N(CC(=O)N[C@H]1CC[C@H](C)CC1)[C@H](CC(C)(C)C)CO2` [Compound 194]: the activation at 10 µM under setting [5] was greater than 600%.

For the molecule `Cc1cccc(C)c1-c1cc2nc(n1)NS(=O)(=O)c1cccc(c1)C(=O)N(Cc1ccc(N3CC4(CCOCC4)C3)cn1)[C@H](CC(C)(C)C)CO2` [Compound 1060], the EC50 (Table 13) is less than 1 µM. Further, the Emax under setting [1] was greater than 60%.

Turning to `Cc1cccc(C)c1-c1cc2nc(n1)NS(=O)(=O)c1cccc(c1)C(=O)N(Cc1nccc(NC3CCCCC3)n1)[C@H](CC(C)(C)C)CO2` [Compound 614], the concentration for a half-maximal effect (EC50) (Table 11) is less than 1 µM. In addition, under setting [2], the Emax was greater than 60%.

Regarding `Cc1cccc(C)c1-c1cc2nc(n1)NS(=O)(=O)c1cccc(c1)C(=O)N(Cc1cnc(C3CCOCC3)cn1)[C@H](CC(C)(C)C)CO2` [Compound 889], the 50% effective concentration (EC50) (Table 11) was 1 to 3 µM. Also, the Emax under setting [2] is greater than 60%.

Turning to `COc1cccc(C)c1-c1cc2nc(n1)NS(=O)(=O)c1cccc(c1)C(=O)N(Cc1cccc(N3CCCC3C)n1)[C@H](CC(C)(C)C)CO2` (stereo partly drawn) [Compound 578], the activation at 10 µM under setting [6] was less than 30%.

Regarding `Cc1cccc(C)c1-c1cc2nc(n1)NS(=O)(=O)c1cccc(c1)C(=O)N(Cc1cccc(N3CCCC3C(N)=O)n1)[C@H](CC(C)(C)C)CO2` (stereo partly drawn) [Compound 539], the activation at 10 µM under setting [5] was greater than 600%.

Take `Cc1cccc(C)c1-c1cc2nc(n1)NS(=O)(=O)c1cccc(c1)C(=O)N(CC(=O)N1CCc3ccccc3C1)[C@H](CC(C)(C)C)CO2` [Compound 207]: the activation at 10 µM under setting [5] is greater than 600%.

On to `Cc1cccc(C)c1-c1cc2nc(n1)NS(=O)(=O)c1cccc(c1)C(=O)N(Cc1nccc(N)n1)[C@H](CC(C)(C)C)CO2` [Compound 645], for which the EC50 (Table 11) was less than 1 µM. Moreover, the Emax under setting [2] was greater than 60%.

Take `Cc1cccc(C)c1-c1cc2nc(n1)NS(=O)(=O)c1cccc(c1)C(=O)N(Cc1cccc(-n3cc(C(C)(C)C)cn3)n1)[C@H](CC(C)(C)C)CO2` [Compound 732]: the EC50 (Table 11) was less than 1 µM. Besides, under setting [2], the Emax is greater than 60%.

Turning to `Cc1cccc(C)c1-c1cc2nc(n1)NS(=O)(=O)c1cccc(c1)C(=O)N(Cc1ncc(N3CCC[C@@H]3C)cn1)[C@H](CC(C)(C)C)CO2` [Compound 569], the EC50 (Table 12) is less than 1 µM. Besides, the Emax under setting [3] was greater than 60%.

As for `Cc1cccc(C)c1-c1cc2nc(n1)NS(=O)(=O)c1cccc(c1)C(=O)N(Cc1cnn(CC(C)C)c1)[C@H](CC(C)(C)C)CO2` [Compound 487], the Emax under setting [7] is greater than 60%.

Consider `Cc1cccc(C)c1-c1cc2nc(n1)NS(=O)(=O)c1cccc(n1)C(=O)N(Cc1ncc(OC(C)C)cn1)[C@H](CC(C)(C)C)CO2` [Compound 1128], for which the EC50 (Table 13) is less than 1 µM. For the same molecule, the Emax under setting [1] was greater than 60%.

Regarding `Cc1cncc(CN2C(=O)c3cccc(c3)S(=O)(=O)Nc3nc(cc(-c4c(C)cccc4C)n3)OC[C@H]2CC(C)(C)C)n1` [Compound 1069], under “Table 11”, the EC50 was less than 1 µM. Under setting [2], the Emax was greater than 60%.
